In brackets after ≈: the same amount, converted by molar mass.
How the values were obtained:
[1] = system: Enterococcus faecalis (EFA); assay: MIC, two-fold agar dilution (CLSI), clinical isolates; assay type: cell-based
Outline: (§1)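 MIC values come from two-fold agar dilution run per CLSI antimicrobial susceptibility testing procedure.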

[2] = system: Escherichia coli (including ESBLs, non-ESBLs); assay: as above; assay type: cell-based
Outline: as §1

[3] = system: methicillin-resistant Staphylococcus aureus (MRSA); assay: as above; assay type: cell-based
Outline: as §1

[4] = system: methicillin-resistant Staphylococcus epidermidis (MRSE); assay: as above; assay type: cell-based
Outline: as §1

[5] = system: methicillin-sensitive Staphylococcus aureus (MSSA); assay: as above; assay type: cell-based
Outline: as §1

[6] = system: methicillin-sensitive Staphylococcus epidermidis (MSSE); assay: as above; assay type: cell-based
Outline: as §1

[7] = system: HCT-116 colorectal cancer cell line; assay: CCK-8 proliferation inhibition; assay type: cell-based; conditions: 72 hours, CCK-8; for HCT116 inhibition rate/%: concentration of 30 μM, 30 µM
Outline: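 Growth inhibition is read by CCK-8 (1:10 dilution) after 72 h of compound exposure. HCT-116 cells grow in McCoy's 5A containing 10% newborn bovine serum at 2000 cells/well, with 1‰ DMSO as vehicle control.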

[8] = system: A549 lung cancer cell line; assay: CCK-8 proliferation inhibition; assay type: cell-based; conditions: for inhibition at 30 µM: A549, 72 h
Outline: (§2)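 Plating at 2000 cells/well, then incubation overnight at 37° C. Next, a range of compound concentrations for 72 hours (control 1‰ DMSO). Finally, medium decanted and CCK-8 diluted 1:10 added.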

[9] = system: BEL-7402 liver cancer cell line; assay: CCK-8 proliferation inhibition; assay type: cell-based; conditions: for Inhibition of proliferation, Liver cancer BEL-7402: concentration of 30 μM, 72 hours, 30 µM
Outline: as §2

[10] = system: MGC-803 gastric cancer cell line; assay: CCK-8 proliferation inhibition; assay type: cell-based; conditions: for inhibition at 30 µM: MGC-803, 72 h; for inhibition at 30 µM / Inhibition of proliferation, Gastric cancer MGC-803: concentration of 30 μM; for Inhibition of proliferation, Gastric cancer MGC-803: 72 hours, 30 µM
Outline: as §2

[11] = system: methemoglobin in blood samples of three healthy volunteers; assay: Toxicity on methemoglobin in vitro (whole blood with S9 and NADPH, absorbance at 630 nm); assay type: cell-based, human
Description: Because PDF inhibitors such as LBM415 and GSK1322322 can produce active species such as aromatic hydroxylamine and aromatic hydrazines in metabolic process, and cause human methemoglobinemia. To this end, continuous wavelength method was adopted in this invention to scan the absorption spectrum of blood samples in the wavelength range of 500 to 700 nm in the ultraviolet-visible spectrophotometer, and the contents of methemoglobin in blood samples of three healthy volunteers were calculated, after being effected by the synthesized compounds.
Experimental materials: Nicotinamide adenine dinucleotide phosphate (NADPH) reduction system: glucose-6-disodium phosphate, nicotinamide adenine dinucleoside phosphate and glucose-6-phosphate dehydrogenase (purchased from Shanghai yuanye Bio-Technology Co., Ltd) were added to 1 mL of phosphate buffer solution (PBS, pH 7.4), and the mixture was shaked in a shaker type water bath at 37° C. for 10 min, and then cooled to 0° C. Mixed human hepatocytes fraction S9 was purchased from Xenotech (20 mg S9 protein/1 mL suspension medium). Compounds were prepared to stock solution at a concentration of 50 mM, which was stored at −20° C. for use. Dapsone was used as positive control experimental reagent, which was purchased from Sigma Aldrich. 1% w/v triton X-100 was self-prepared. Blood samples were collected using Vacutainer tubes containing EDTA anticoagulants (BD, Franklin Lakes, USA), which were sampled from three healthy volunteers and used immediately after sampling.
Preparation of incubation system for blood samples and drugs: 250 μL of incubation system was consist of 220 μL of whole blood, 25 μL of S9 (final concentration: 2 mg S9 protein/mL incubation solution), 2.5 μL of NADPH form system (final concentration: 10 mM G-6-P, 1 mM NADP, 7.5 Units/mL) and 2.5 μL of stock solution of a compound (final concentration 500 μM). […] of incubation system was placed in an Eppendorf tube and incubated for 5 hours at 37° C. in water bath.
Determination of the content of methemoglobin: 60 μL of an incubated sample was taken and lysed with 3.0 mL of 1% Triton X-100. The content of methemoglobin (MetHb) was measured by an ultraviolet-visible spectrophotometer, with the Triton X-100 solution used as blank control. A sample was placed in a cuvette, 1 minute later, the spectrums of the sample in the wavelength range from 500 nm to 700 nm were recorded. The sample was added with 2 mg of potassium ferricyanide, and was allowed to stay stationary for 2 minutes for completely oxidization of ferrous iron in the sample, and standard spectrum of methemoglobin with saturated potassium ferricyanide. The percentage of methemoglobin formation (MetHb %) was obtained by the ratio of absorbance at 630 nm. MetHb %=(A′−AB′)/AM′, wherein, A′ was the total absorbance of the sample at 630 nm, AB′ was the base absorbance of the reduced blood in the sample at 630 nm, and AM′ was the absorbance of oxidized blood with saturated potassium ferricyanide at 630 nm.

[12] = MIC in vitro anti-bacterial experiments, Gram-positive bacteria; assay type: cell-based; conditions: lowest MIC reached; read-out: minimum inhibitory concentration against Gram-positive bacteria
Description: 1. The invention adopts the two-fold agar dilution method recommended by the operating procedure of antimicrobial susceptibility testing set by American Clinical and Laboratory Standards Institute (CLSI) to determine the Minimum Inhibitory Concentration (MIC) of the test samples against the tested strains.

[13] = system: Enterococcus faecium (EFM); assay: MIC, two-fold agar dilution (CLSI), clinical isolates; assay type: cell-based
Outline: as §1

[14] = system: Moraxella catarrhalis (BCA); assay: as above; assay type: cell-based
Outline: as §1

[15] = system: Streptococcus pneoumoniae (SPN); assay: as above; assay type: cell-based; conditions: strain SPN 16-2
Outline: as §1

[16] = Homo sapiens, concentration of 30 μM

CCCC[C@H](CN(O)C=O)C(=O)N1CC2(CC2)C[C@H]1C(=O)Nc1ncc(C)s1 [Example 6]
MIC (anti-bacterial activity) ([1]; strain EFA 14-1): 0.125 mg/L (≈ 0.306 µM) | MIC (anti-bacterial activity) ([1]; strain EFA 14-2): 0.5 mg/L (≈ 1.22 µM) | MIC (anti-bacterial activity) ([1]; strain EFA 14-3): 0.5 mg/L (≈ 1.22 µM) | MIC (anti-bacterial activity) ([1]; strain EFA 14-5): 0.25 mg/L (≈ 0.612 µM) | MIC (anti-bacterial activity) ([2]; strain ECO+ 14-1): 0.125 mg/L (≈ 0.306 µM) | MIC (anti-bacterial activity) ([2]; strain ECO+ 14-2): 32 mg/L (≈ 78.3 µM) | MIC (anti-bacterial activity) ([2]; strain ECO− 14-1): 32 mg/L (≈ 78.3 µM) | MIC (anti-bacterial activity) ([2]; strain ECO− 14-2): 32 mg/L (≈ 78.3 µM) | MIC (anti-bacterial activity) ([3]; strain MRSA 14-1): < 0.008 mg/L | MIC (anti-bacterial activity) ([3]; strain MRSA 14-2): < 0.008 mg/L | MIC (anti-bacterial activity) ([3]; strain MRSA 14-4): < 0.008 mg/L | MIC (anti-bacterial activity) ([3]; strain MRSA 14-5): < 0.008 mg/L | MIC (anti-bacterial activity) ([3]; strain printed MRSA 14-1 (second line of that name, r23, before MRSE 14-2)): < 0.008 mg/L | MIC (anti-bacterial activity) ([4]; strain MRSE 14-2): < 0.008 mg/L | MIC (anti-bacterial activity) ([4]; strain MRSE 14-3): < 0.008 mg/L | MIC (anti-bacterial activity) ([4]; strain MRSE 14-4): < 0.008 mg/L | MIC (anti-bacterial activity) ([5]; strain MSSA 14-1): < 0.008 mg/L | MIC (anti-bacterial activity) ([5]; strain MSSA 14-2): < 0.008 mg/L | MIC (anti-bacterial activity) ([5]; strain MSSA 14-3): < 0.008 mg/L | MIC (anti-bacterial activity) ([5]; strain MSSA 14-4): < 0.008 mg/L | MIC (anti-bacterial activity) ([6]; strain MSSE 14-1): < 0.008 mg/L | MIC (anti-bacterial activity) ([6]; strain MSSE 14-2): < 0.008 mg/L | MIC (anti-bacterial activity) ([6]; strain MSSE 14-3): < 0.008 mg/L | MIC (anti-bacterial activity) ([6]; strain MSSE 14-4): < 0.008 mg/L | HCT116 inhibition rate/% [7]: 86% | inhibition at 30 µM [8, 16]: 26% | Inhibition of proliferation, Liver cancer BEL-7402 [9]: 74% | inhibition at 30 µM ([10]; Homo sapiens): > 50% | Inhibition of proliferation, Gastric cancer MGC-803 [10]: 66% | MetHb % (n = 3) ([11]; 500 μM compound, whole blood + S9 + NADPH, 5 hours at 37° C.): 2.25 ± 0.02% | probability of methemoglobin formation in blood compared with the control drugs LBM415 and GSK1322322 ([11]; toxicity test in vitro, in words): lower probability of methemoglobin formation in blood | MIC [12]: < 0.008 mg/L

O=C(C[C@@H](CC1CCCC1)C(=O)N1CC2(CC2)C[C@H]1C(=O)Nc1nc(C(F)(F)F)cs1)NO [Example 73]
Anti-bacterial activity (MIC) ([1]; strain EFA 15-1): 2 mg/L | Anti-bacterial activity (MIC) ([1]; strain EFA 15-2): 2 mg/L | Anti-bacterial activity (MIC) ([1]; strain EFA 15-3): 2 mg/L | Anti-bacterial activity (MIC) ([1]; strain EFA 15-4): 2 mg/L | Anti-bacterial activity (MIC) ([1]; strain EFA 15-5): 2 mg/L | Anti-bacterial activity (MIC) ([1]; strain EFA 15-6): 2 mg/L | Anti-bacterial activity (MIC) ([1]; strain EFA 15-9): 2 mg/L | Anti-bacterial activity (MIC) ([13]; strain EFM 15-1): 1 mg/L | Anti-bacterial activity (MIC) ([13]; strain EFM 15-2): 1 mg/L | Anti-bacterial activity (MIC) ([13]; strain EFM 15-3): 0.125 mg/L | Anti-bacterial activity (MIC) ([13]; strain EFM 15-4): 1 mg/L | Anti-bacterial activity (MIC) ([13]; strain EFM 15-5): 0.125 mg/L | Anti-bacterial activity (MIC) ([13]; strain EFM 15-6): 1 mg/L | Anti-bacterial activity (MIC), strain ECO+ 15-1 ([2]; clinical isolate ECO+ 15-1): 16 mg/L | Anti-bacterial activity (MIC), strain ECO+ 15-2 ([2]; clinical isolate ECO+ 15-2): 32 mg/L | Anti-bacterial activity (MIC), strain ECO+ 15-3 ([2]; clinical isolate ECO+ 15-3): 32 mg/L | Anti-bacterial activity (MIC), strain ECO+ 15-4 ([2]; clinical isolate ECO+ 15-4): 32 mg/L | Anti-bacterial activity (MIC), strain ECO− 15-1 ([2]; clinical isolate ECO− 15-1): 32 mg/L | Anti-bacterial activity (MIC), strain ECO− 15-2 ([2]; clinical isolate ECO− 15-2): 32 mg/L | Anti-bacterial activity (MIC), strain ECO− 15-3 ([2]; clinical isolate ECO− 15-3): 32 mg/L | Anti-bacterial activity (MIC), strain ECO− 15-4 ([2]; clinical isolate ECO− 15-4): 32 mg/L | Anti-bacterial activity (MIC) ([14]; strain BCA 14-1): 1 mg/L | Anti-bacterial activity (MIC) ([14]; strain BCA 14-4): 1 mg/L | Anti-bacterial activity (MIC) ([14]; strain BCA 14-5): 0.25 mg/L | Anti-bacterial activity (MIC) ([14]; strain BCA 14-6): 1 mg/L | Anti-bacterial activity (MIC) ([14]; strain BCA 14-7): 0.125 mg/L | Anti-bacterial activity (MIC) ([14]; strain BCA 14-8): 0.25 mg/L | Anti-bacterial activity (MIC) ([14]; strain BCA 14-10): 0.125 mg/L | Anti-bacterial activity (MIC) [15]: 1 mg/L | Anti-bacterial activity (MIC), strain MRSA 15-1 ([3]; clinical isolate MRSA 15-1): 0.03 mg/L | Anti-bacterial activity (MIC), strain MRSA 15-2 ([3]; clinical isolate MRSA 15-2): 0.06 mg/L | Anti-bacterial activity (MIC), strain MRSA 15-3 ([3]; clinical isolate MRSA 15-3): 0.06 mg/L | Anti-bacterial activity (MIC), strain MRSA 15-4 ([3]; clinical isolate MRSA 15-4): 0.06 mg/L | Anti-bacterial activity (MIC), strain MRSE 15-1 ([4]; clinical isolate MRSE 15-1): < 0.008 mg/L | Anti-bacterial activity (MIC), strain MRSE 15-2 ([4]; clinical isolate MRSE 15-2): 0.015 mg/L | Anti-bacterial activity (MIC), strain MRSE 15-3 ([4]; clinical isolate MRSE 15-3): < 0.008 mg/L | Anti-bacterial activity (MIC), strain MRSE 15-7 ([4]; clinical isolate MRSE 15-7): 0.06 mg/L | Anti-bacterial activity (MIC), strain MSSA 15-3 ([5]; clinical isolate MSSA 15-3): 0.06 mg/L | Anti-bacterial activity (MIC), strain MSSA 15-4 ([5]; clinical isolate MSSA 15-4): 0.06 mg/L | Anti-bacterial activity (MIC), strain MSSA 15-5 ([5]; clinical isolate MSSA 15-5): 0.03 mg/L | Anti-bacterial activity (MIC), strain MSSA 15-6 ([5]; clinical isolate MSSA 15-6): 0.06 mg/L | Anti-bacterial activity (MIC), strain MSSE 15-3 ([6]; clinical isolate MSSE 15-3): 0.015 mg/L | Anti-bacterial activity (MIC), strain MSSE 15-4 ([6]; clinical isolate MSSE 15-4): < 0.008 mg/L | Anti-bacterial activity (MIC), strain MSSE 15-5 ([6]; clinical isolate MSSE 15-5): < 0.008 mg/L | Anti-bacterial activity (MIC), strain MSSE 15-6 ([6]; clinical isolate MSSE 15-6): < 0.008 mg/L | IC50 ([7]; Homo sapiens, HCT-116): 6.21 µM | HCT116 inhibition rate/% [7]: 78% | inhibition at 30 µM [8, 16]: > 50% | IC50 ([8]; Homo sapiens, A549, 72 hours): 5.12 µM | Inhibition of proliferation, Lung cancer A549 ([8]; concentration of 30 μM, 72 hours, 30 µM): 63% | IC50 ([9]; Homo sapiens, Bel-7402, 72 hours): 10 µM | Inhibition of proliferation, Liver cancer BEL-7402 [9]: 81% | inhibition at 30 µM ([10]; Homo sapiens): > 50% | IC50 ([10]; Homo sapiens, MGC-803, 72 hours): 12.7 µM | Inhibition of proliferation, Gastric cancer MGC-803 [10]: 65% | MIC [12]: < 0.008 mg/L
